From patent US4533553A, “Polycyclic ether antibiotic” (priority 1983, dated 1985)
Structures can show the parent of a compound that is named as a salt.

Tests used:
Bacteroides fragilis = test: in vitro MIC test; format: cell-based; details: 24 h
Experimental: (§1) In Table I, below, the results of in vitro MIC tests are summarized. For this test each organism is inoculated in a series of test tubes containing nutrient medium and varying concentrations of Compound 53,607 to determine the minimal concentration of the antibiotic in mcg/ml which inhibits the growth of the organism over a period of 24 hours (MIC).

Staphylococcus aureus = test: in vitro MIC test; format: cell-based; details: 24 h
Experimental: as §1

Treponema hyodysenteriae = test: in vitro MIC test; format: cell-based; details: Brachyspira hyodysenteriae, 24 h
Experimental: as §1

Haemophilus influenza = test: in vitro MIC test; format: cell-based; details: 24 h
Experimental: as §1

Neisseria sicca = test: in vitro MIC test; format: cell-based; details: strain 66C000, 24 hours
Experimental: as §1

Bacillus subtilis = test: in vitro MIC test; format: cell-based; details: strain 06A001, 24 hours
Experimental: as §1

[1] = system: Fusobacterium necrophorum; test: in vitro MIC test; format: cell-based; details: strain 84C004, 24 hours
Experimental: as §1

Corynebacterium pyogenes = test: in vitro MIC test; format: cell-based; details: Rhodococcus (subgen. Prescottella) equi; strain 11D001, 24 hours
Experimental: as §1

Streptococcus faecalis = test: in vitro MIC test; format: cell-based; details: Enterococcus faecalis; strain 02A006, 24 hours
Experimental: as §1

Streptococcus pyogenes = test: in vitro MIC test; format: cell-based; details: 24 h
Experimental: as §1

Pasteurella multocida = test: in vitro MIC test; format: cell-based; details: strain 59A001, 24 hours
Experimental: as §1

[2] = system: Staphylococcus epidermidis; test: in vitro MIC test; format: cell-based; details: 24 h
Experimental: as §1

Bacteroides vulgatis = test: in vitro MIC test; format: cell-based; details: strain 78E032, 24 hours
Experimental: as §1

Clostridium perfringens = test: microbe, parasite or virus in culture; format: cell-based
rumen fluid = test: in vitro rumen technique, propionic acid production; design: species or system cow; details: 10 μg./ml.
Experimental: The value of animal feeds generally has been determined directly by feeding the animal. British Patent Specification No. 1,197,826 details an in vitro rumen technique whereby the changes occurring in feeds brought about by microorganisms are measured more readily and with great accuracy in the evaluation of animal feeds. This technique involves the use of an apparatus in which the digestive processes of the animals are conducted and studied in vitro. The animal feeds, rumen inoculum and various growth promotants are introduced into and withdrawn from a laboratory unit under carefully controlled conditions and the changes taken place are studied critically and progressively during the consumption of the feed by the microorganisms. […] The change in propionic acid content is expressed as percent of the propionic acid content found in the control rumen fluid. Long term in vivo feeding studies are used to show a reliable correlation between propionic acid increase in the rumen fluid and improved animal performance.
Rumen fluid is collected from a fistulated cow which is fed on a commercial fattening ration plus hay. The rumen fluid is immediately filtered through cheese cloth, and 10 ml added to a 50 ml conical flask containing 400 mg. of standard substrate (68% corn starch+17% cellulose+15% extracted soybean meal), 10 ml. of a pH 6.8 buffer and the test compound. The flasks are gassed with oxygen free nitrogen for about two minutes, and incubated in a shaking water bath at 39° C. for about 16 hours. All tests are conducted in triplicate.
After incubation, 5 ml. of the sample is mixed with 1 ml. of 25% metaphosphoric acid. After 10 minutes 0.25 ml. of formic acid is added and the mixture centrifuged at 1,500 r.p.m. for 10 minutes. Samples are then analyzed by gas-liquid chromatograhy by the method of D. W. Kellog, J. Dairy Science, 52, 1690 (1969). Peak heights for acetic, propionic and butyric acids are determined for samples from untreated and treated incubation flasks.

Q: What does the source list for CC(=CC(C)C1OC2(CCC(C)(C3CCC(C)C4(OC(C5OC(O)(CO)C(C)CC5C)CC4C)O3)O2)CC(O)C1C)C(=O)C(C)CC(C)C(=O)O (centres unmarked) [53,607 (sodium salt)]?
A: MIC (Bacteroides fragilis; strain 78C004, 24 hours): 12.5 µg/mL; MIC (Bacteroides fragilis; strain 78C009, 24 hours): 6.25 µg/mL; MIC (Bacteroides fragilis; strain 78C010, 24 hours): 6.25 µg/mL; MIC (Staphylococcus aureus; strain 01A005, 24 hours): 0.78 µg/mL; MIC (Staphylococcus aureus; strain 01A052, 24 hours): 0.78 µg/mL; MIC (Staphylococcus aureus; strain 01A110, 24 hours): 1.56 µg/mL; MIC (Staphylococcus aureus; strain 01A400, 24 hours): 1.56 µg/mL; MIC (Treponema hyodysenteriae; strain 94A001, 24 hours): 0.39 µg/mL; MIC (Treponema hyodysenteriae; strain 94A002, 24 hours): 0.098 µg/mL; MIC (Haemophilus influenza; strain 54A036, 24 hours): 6.25 µg/mL; MIC (Haemophilus influenza; strain 54A037, 24 hours): 3.12 µg/mL; MIC (Haemophilus influenza; strain 54A059, 24 hours): 12.5 µg/mL; MIC (Neisseria sicca): 25 µg/mL; MIC (Bacillus subtilis): 0.39 µg/mL; MIC [1]: 3.12 µg/mL; MIC (Corynebacterium pyogenes): 25 µg/mL; MIC (Streptococcus faecalis): 1.56 µg/mL; MIC (Streptococcus pyogenes): < 0.01 µg/mL; MIC (Pasteurella multocida): > 200 µg/mL; MIC ([2]; strain 01B087R): 0.78 µg/mL; MIC ([2]; strain 01B111RR): 0.78 µg/mL; MIC ([2]; strain 01B126, 24 hours): 1.56 µg/mL; MIC (Bacteroides vulgatis): 3.12 µg/mL; MIC (Clostridium perfringens; Clostridium perfringens, 24 h): 0.98 µg/mL; MIC (Clostridium perfringens; strain 10A003, 24 hours): 0.98 µg/mL

Q: Which “increase of propionic acid over the control” value (rumen fluid) does the source give for CC[C@@]1([C@@H]2O[C@@H]([C@H]3O[C@@](O)(CO)[C@H](C)C[C@@H]3C)C[C@@H]2C)CC[C@H]([C@]2(C)CC[C@]3(C[C@H](O)[C@@H](C)[C@@H]([C@@H](C)[C@@H](OC)[C@H](C)C(=O)O)O3)O2)O1 [Monensin, reference compound] here?
A: about 20%
